# According to patent publication US10456407B2, “Combination therapy for treating cancer” (Epizyme, Inc., priority 2015, dated 2019):
# Assays:
# Assay type in all cases: cell-based
# SU-DHL4 cells = assay: RT2 Glucocorticoid signaling PCR array, SU-DHL4 (SUDHL4) cell line (Table 4f); settings: SUDHL4, 4 days, vs DMSO
# From the text: (§1) Expression levels of (A). Sestrin; (B). TNF and (C) GILZ normalized to DMSO controls for each cell line with the indicated single agent or combination.
# SMARCB1 protein levels = assay: SMARCB1 (INI1) western blot in lymphoma cells; settings: single agent treatment
# From the text: Glucocorticoid bound GR molecules move to the nucleus and can act as either transcriptional activator or repressor, depending on the cellular environment. […] Accessibility to GR binding sites can further be enhanced by ATP-dependent chromatin remodeling, and the SWI/SNF complex plays a key role in this activity. Not wishing to be bound by a particular theory or a specific mechanism of action, it is conceivable that aberrant chromatin repression, induced by EZH2 mediated hypertrimethylation of H3K27, can block some of the otherwise accessible GR binding sites, interfering with normal GR mediated gene induction or repression.
# OCI-Ly19 cells = assay: RT2 Glucocorticoid signaling PCR array, OCI-LY19 (Table 4a, printed OCT) cell line; settings: vs DMSO
# From the text: as §1
# SU-DHL10 cells = assay: RT2 Glucocorticoid signaling PCR array, SU-DHL10 (SUDHL10) cell line (Table 4d); settings: SUDHL10, 4 days, vs DMSO
# RL cells = assay: RT2 Glucocorticoid signaling PCR array, RL (Table 4e, printed RI) cell line; settings: 4 days, Cpd44 1 uM, Pred 10-fold below 4-day IC50, vs DMSO, B2M-normalized
structure (smiles),measurement,setting,value
CCN(c1cc(-c2ccc(CN3CCOCC3)cc2)cc(C(=O)NCc2c(C)cc(C)[nH]c2=O)c1C)C1CCOCC1 [Compound 44],"ΔΔCT, BCL6",SU-DHL4 cells,−1.019
same,"ΔΔCT, CEBPB",SU-DHL4 cells,0.776
same,"ΔΔCT, DDIT4",SU-DHL4 cells,−1.317
same,"ΔΔCT, DUSP1",SU-DHL4 cells,−0.449
same,"ΔΔCT, NFKBIA",SU-DHL4 cells,−0.388
same,"ΔΔCT, PDP1",SU-DHL4 cells,−0.911
same,"ΔΔCT, POU2F2",SU-DHL4 cells,−0.539
same,"ΔΔCT, RASA3",SU-DHL4 cells,−0.731
same,"ΔΔCT, SPHK1",SU-DHL4 cells,−1.066
same,"ΔΔCT, STAT5A",SU-DHL4 cells,−0.587
same,"ΔΔCT, TNF",SU-DHL4 cells,−2.458
same,"ΔΔCT, VDR",SU-DHL4 cells,−2.155
same,"ΔΔCT, VLDLR",SU-DHL4 cells,0.438
same,"ΔΔCT, ZNF281",SU-DHL4 cells,−0.612
same,SMARCB1 protein levels,SMARCB1 protein levels,no effect
same,"ΔΔCT, AFF1",OCI-Ly19 cells; gene AFF1,−0.008
same,"ΔΔCT, AMPD3",OCI-Ly19 cells; gene AMPD3,−0.654
same,"ΔΔCT, ANXA4",OCI-Ly19 cells; gene ANXA4,−0.154
same,"ΔΔCT, CEBPA",OCI-Ly19 cells; gene CEBPA,−2.891
same,"ΔΔCT, CREB1",OCI-Ly19 cells; gene CREB1,0.006
same,"ΔΔCT, CREB3",OCI-Ly19 cells; gene CREB3,0.057
same,"ΔΔCT, GHRHR",OCI-Ly19 cells; gene GHRHR,−4.040
same,"ΔΔCT, GOT1",OCI-Ly19 cells; gene GOT1,−0.084
same,"ΔΔCT, PER1",OCI-Ly19 cells; gene PER1,0.674
same,"ΔΔCT, RGS2",OCI-Ly19 cells; gene RGS2,−0.968
same,"ΔΔCT, SPSB1",OCI-Ly19 cells; gene SPSB1,−0.097
same,"ΔΔCT, TBL1XR1",OCI-Ly19 cells; gene TBL1XR1,−0.043
same,"ΔΔCT, TNF",OCI-Ly19 cells; gene TNF,−0.600
same,"ΔΔCT, VLDLR",OCI-Ly19 cells; gene VLDLR,−0.280
same,AFF1 ΔΔCT,SU-DHL10 cells,0.650
same,AMPD3 ΔΔCT,SU-DHL10 cells,−0.556
same,ANGPTL4 ΔΔCT,SU-DHL10 cells,0.615
same,ANXA4 ΔΔCT,SU-DHL10 cells,−2.475
same,BCL6 ΔΔCT,SU-DHL10 cells,0.640
same,CEBPB ΔΔCT,SU-DHL10 cells,3.019
same,CREB1 ΔΔCT,SU-DHL10 cells,−0.051
same,CREB3L4 ΔΔCT,SU-DHL10 cells,0.806
same,CREB3 ΔΔCT,SU-DHL10 cells,0.421
same,CYB561 ΔΔCT,SU-DHL10 cells,−2.399
same,DUSP1 ΔΔCT,SU-DHL10 cells,1.099
same,EHD3 ΔΔCT,SU-DHL10 cells,−0.855
same,FK8PS ΔΔCT,SU-DHL10 cells,0.042
same,FOSL2 ΔΔCT,SU-DHL10 cells,−0.063
same,GDPD1 ΔΔCT,SU-DHL10 cells,−1.405
same,HNRPLL ΔΔCT,SU-DHL10 cells,0.071
same,KLF9 ΔΔCT,SU-DHL10 cells,−1.127
same,KLF13 ΔΔCT,SU-DHL10 cells,−1.636
same,NFKBIA ΔΔCT,SU-DHL10 cells,0.602
same,PDCD7 ΔΔCT,SU-DHL10 cells,0.802
same,PDP1 ΔΔCT,SU-DHL10 cells,0.016
same,PER1 ΔΔCT,SU-DHL10 cells,0.780
same,PIK3R1 ΔΔCT,SU-DHL10 cells,0.831
same,PLEKHF1 ΔΔCT,SU-DHL10 cells,0.469
same,POU2F1 ΔΔCT,SU-DHL10 cells,0.006
same,POU2F2 ΔΔCT,SU-DHL10 cells,0.424
same,RA5A3 ΔΔCT,SU-DHL10 cells,0.385
same,RGS2 ΔΔCT,SU-DHL10 cells,0.072
same,RHOB ΔΔCT,SU-DHL10 cells,−1.475
same,SESN1 ΔΔCT,SU-DHL10 cells,−1.646
same,SGK1 ΔΔCT,SU-DHL10 cells,1.943
same,SLC10A6 ΔΔCT,SU-DHL10 cells,−0.648
same,SLC19A2 ΔΔCT,SU-DHL10 cells,−1.413
same,SLC22A5 ΔΔCT,SU-DHL10 cells,−1.733
same,SNTA1 ΔΔCT,SU-DHL10 cells,0.531
same,SPSB1 ΔΔCT,SU-DHL10 cells,−0.444
same,STAT5A ΔΔCT,SU-DHL10 cells,0.384
same,TBL1XR1 ΔΔCT,SU-DHL10 cells,0.234
same,TNFAIP3 ΔΔCT,SU-DHL10 cells,0.124
same,TSC22D3 ΔΔCT,SU-DHL10 cells,2.709
same,USP2 ΔΔCT,SU-DHL10 cells,0.070
same,USPS4 ΔΔCT,SU-DHL10 cells,−0.064
same,VLDLR ΔΔCT,SU-DHL10 cells,4.246
same,ZFP36 ΔΔCT,SU-DHL10 cells,0.215
same,ZHX3 ΔΔCT,SU-DHL10 cells,−1.169
same,ZNF281 ΔΔCT,SU-DHL10 cells,−0.437
same,ΔΔCT,RL cells; ADARB1 mRNA,−1.672
same,ΔΔCT,RL cells; AFF1 mRNA,−2.005
same,ΔΔCT,RL cells; AK2 mRNA,0.268
same,ΔΔCT,RL cells; ANGPTL4 mRNA,−0.935
same,ΔΔCT,RL cells; ANXA4 mRNA,−0.562
same,ΔΔCT,RL cells; ARID68 mRNA,−1.220
same,ΔΔCT,RL cells; ATF4 mRNA,0.003
same,ΔΔCT,RL cells; CEBPB mRNA,−0.004
same,ΔΔCT,RL cells; COL4A2 mRNA,−0.773
same,ΔΔCT,RL cells; CREB1 mRNA,0.205
same,ΔΔCT,RL cells; CREB3L4 mRNA,−0.760
same,ΔΔCT,RL cells; CREB3 mRNA,−0.189
same,ΔΔCT,RL cells; CYB561 mRNA,−1.477
same,ΔΔCT,RL cells; DDIT4 mRNA,0.461
same,ΔΔCT,RL cells; DUSP1 mRNA,−0.321
same,ΔΔCT,RL cells; EDN1 mRNA,−1.208
same,ΔΔCT,RL cells; EHD3 mRNA,−0.962
same,ΔΔCT,RL cells; FK8PS mRNA,0.388
same,ΔΔCT,RL cells; GDPD1 mRNA,−0.772
same,ΔΔCT,RL cells; GLUL mRNA,−2.614
same,ΔΔCT,RL cells; GOT1 mRNA,0.518
same,ΔΔCT,RL cells; H6PD mRNA,−0.673
same,ΔΔCT,RL cells; HNRPLL mRNA,0.309
same,ΔΔCT,RL cells; IL1RN mRNA,−1.881
same,ΔΔCT,RL cells; IL6R mRNA,−0.515
same,ΔΔCT,RL cells; IL10 mRNA,−1.432
same,ΔΔCT,RL cells; KLF13 mRNA,−0.566
same,ΔΔCT,RL cells; LOX mRNA,−0.580
same,ΔΔCT,RL cells; MERTK mRNA,−4.419
same,ΔΔCT,RL cells; MT2A mRNA,0.577
same,ΔΔCT,RL cells; NFKBIA mRNA,0.854
same,ΔΔCT,RL cells; NR3C1 mRNA,0.067
same,ΔΔCT,RL cells; PDCD7 mRNA,0.006
same,ΔΔCT,RL cells; PDP1 mRNA,−0.989
same,ΔΔCT,RL cells; PER1 mRNA,0.384
same,ΔΔCT,RL cells; PER2 mRNA,−0.361
same,ΔΔCT,RL cells; PIK3R1 mRNA,0.373
same,ΔΔCT,RL cells; PLEKHF1 mRNA,0.050
same,ΔΔCT,RL cells; POU2F1 mRNA,−0.027
same,ΔΔCT,RL cells; POU2F2 mRNA,−0.584
same,ΔΔCT,RL cells; RA5A3 mRNA,−0.009
same,ΔΔCT,RL cells; RGS2 mRNA,−0.162
same,ΔΔCT,RL cells; SESN1 mRNA,−1.697
same,ΔΔCT,RL cells; SGK1 mRNA,0.801
same,ΔΔCT,RL cells; SLC19A2 mRNA,−0.797
same,ΔΔCT,RL cells; SNTA1 mRNA,0.040
same,ΔΔCT,RL cells; SPHK1 mRNA,−0.781
same,ΔΔCT,RL cells; SPSB1 mRNA,−0.865
same,ΔΔCT,RL cells; STAT5A mRNA,0.001
same,ΔΔCT,RL cells; STAT5B mRNA,−0.094
same,ΔΔCT,RL cells; TNF mRNA,−0.837
same,ΔΔCT,RL cells; TNFAIP3 mRNA,0.886
same,ΔΔCT,RL cells; USP2 mRNA,−0.139
same,ΔΔCT,RL cells; USPS4 mRNA,−0.961
same,ΔΔCT,RL cells; VDR mRNA,−2.658
same,ΔΔCT,RL cells; ZHX3 mRNA,4.661
same,ΔΔCT,RL cells; ZNF281 mRNA,0.046
